In one test the target is α1(Q242L)β3 GABAAR (UniProt P28472+P62813, Q268L). Description: [3H]muscimol binding to HEK cell membranes, intersubunit site mutant. Also on record: expressed in transfected cells; host or cells: HEK293S GnTI- (ATCC CRL-3022), transient; species or system rat α1, human β3. The conditions noted are these: for Emax (% of control) of [3H]muscimol binding: 100% means no effect. On the procedure: (§1) The human α1 and β3 GABAAR subunits were subcloned into pcDNA3 for molecular manipulations and cRNA synthesis. Using QuikChange Site-Directed Mutagenesis Kit (Agilent Technologies, Santa Clara, CA), a FLAG tag was first added to the α1 subunit then an 8xHis tag was added to generate the following His-FLAG tag tandem ([…]), inserted between the fourth and fifth residues of the mature peptide. The α1 and β3 subunits were then transferred into the pcDNA4/TO and pcDNA5/TO vectors (Thermo Fisher Scientific), respectively, for tetracycline inducible expression. Transient expression was done using the GABAAR subunits rat α1FLAG ([Ueno et al., 1996]) and human β3 obtained from Geoffrey White (Neurogen, Branford, CT), each were subcloned into pcDNA3 for molecular manipulations and cRNA synthesis. Point mutations were generated using the QuikChange Site-Directed Mutagenesis Kit (Agilent) and the coding region was fully sequenced prior to use. The cDNAs were linearized with XbaI (NEB Labs, Ipswich, MA), and the cRNAs were generated using T7 mMessage mMachine (Ambion, Austin, TX).
(§2) [^3H]muscimol-binding assays were performed using a previously described method ([Chen et al., 2019]). […] Assay tubes were incubated for 1 hr on ice in the dark. […] Membranes were collected on Whatman/GF-C glass filter papers using a Brandel cell harvester (Gaithersburg, MD). To perform [^3H]muscimol binding isotherms, 100 μg/ml aliquots of membrane protein were incubated with 0.3 nM–1 μM [^3H]muscimol for 1 hr on ice in the dark. The specific activity for [^3H]muscimol concentrations from 30 nM to 1 μM was reduced to 2 Ci/mmol by dilution with nonradioactive muscimol. The membranes were collected on Whatman/GF-B glass filter papers using a vacuum manifold. […] For [^3H]muscimol-binding experiments examining competitive interactions between neurosteroids, the combined neurosteroids (0.3 μM 3α5αP or 3 μM KK148 ±30 μM KK150) or the same volume of dimethyl sulfoxide (DMSO) were added to the membranes which were then incubated with 3 nM [^3H]muscimol on ice for 1 hr. Time courses of neurosteroid [^3H]muscimol binding enhancement were examined by adding 10 µM of neurosteroids (3α5αP, 3β5αP) to membranes that had been fully equilibrated with 3 nM [^3H]muscimol for 1 hr on ice; binding was then measured as a function of time at 1, 3, 10, 30, 60 min. The membranes were collected on Whatman/GF-B glass filter papers using a vacuum manifold. Radioactivity bound to the filters was measured by liquid scintillation spectrometry using Bio-Safe II (Research Products International, Mount Prospect, IL).

For the next test, the target named is T1, α1β3 GABAAR (UniProt P28472+P62813).
T1 construct: expressed in transfected cells; host or cells: Xenopus laevis oocytes injected with cRNA (α1:β3 5:1)
Description: Two-electrode voltage clamp in Xenopus laevis oocytes, WT receptor. The class given is cell-based. The settings on record: for Potentiation of GABA-elicited currents: 0.3 μM GABA, 10 μM neurosteroid, oocytes; for % of desensitization (reduction of steady-state current): 1 mM GABA, 3β5αP 3 μM, KK148 10 μM, KK150 10 μM, WT. On the procedure: The wild-type and mutant α1β3 GABAAR were expressed in oocytes from the African clawed frog (Xenopus laevis). Frogs were purchased from Xenopus 1 (Dexter, MI), and housed and cared for in a Washington University Animal Care Facility under the supervision of the Washington University Division of Comparative Medicine. Harvesting of oocytes was conducted under the Guide for the Care and Use of Laboratory Animals as adopted and promulgated by the National Institutes of Health. The animal protocol (No. 20180191) was approved by the Animal Studies Committee of Washington University in St. Louis. The oocytes were injected with a total of 12 ng cRNA. The ratio of cRNAs was 5:1 ratio (α1:β3) to minimize the expression of β3 homomeric receptors. Following injection, the oocytes were incubated in ND96 (96 mM NaCl, 2 mM KCl, 1.8 mM CaCl2, 1 mM MgCl2, 5 mM HEPES; pH 7.4) with supplements (2.5 mM Na pyruvate, 100 U/ml penicillin, 100 μg/ml streptomycin and 50 μg/ml gentamycin) at 16°C for 2 days prior to conducting electrophysiological recordings. The electrophysiological recordings were conducted at room temperature using standard two-electrode voltage clamp. The oocytes were clamped at −60 mV. The chamber (RC-1Z, Warner Instruments, Hamden, CT) was perfused with ND96 at 5–8 ml/min. Solutions were gravity-applied from 30 ml glass syringes with glass luer slips via Teflon tubing. The current responses were amplified with an OC-725C amplifier (Warner Instruments, Hamden, CT), digitized with a Digidata 1200 series digitizer (Molecular Devices), and stored using pClamp (Molecular Devices). Current traces were analyzed with Clampfit (Molecular Devices). […] The stock solution of muscimol was made at 20 mM in ND96 and stored at 4°C. The steroids were dissolved in DMSO at 10–20 mM and stored at room temperature.
The converted current traces were analyzed in the framework of the three-state Resting-Open-Desensitized activation model ([Germann et al., 2019a]; [Germann et al., 2019b]). The model enables analysis and prediction of peak responses using four parameters that characterize the extent of constitutive activity (termed L; L = Resting/Open), affinity of the resting receptor to agonist (KC), affinity of the open receptor to agonist (KO), and the number of agonist binding sites (N). Analysis and prediction of steady-state responses requires an additional parameter, termed Q, that describes the equilibrium between open and desensitized receptors (Q = Open/Desensitized).
The Popen of the peak response is expressed as: Popen,peak=1/1+LΓ and the Popen of the steady-state response as: Popen,steady−state=1/1+1/Q+LΓ where Γ=[(1+[X]/KC)/(1+[X]/KO)]^N
[X]is the concentration of agonist present, and other terms are as described above. In practice, the value of LΓ was calculated using the experimentally determined Popen of the peak response, and then used as a fixed value in estimating Q from Popen,steady-state.
The Pdesensitized was calculated using: Pdesensitized=1/1+Q+QLΓ
Calculated probabilities (e.g. Popen, Pdesentitized) are reported as mean ± SD.
A general note: In two-electrode clamp one electrode senses voltage and the other passes current.

Another test concerns the target T2, α1(N408A/Y411F)β3 GABAAR (UniProt P28472+P62813, N434A/Y437F).
T2 construct: expressed in transfected cells; host or cells: HEK293S GnTI- (ATCC CRL-3022), transient
Description: [3H]muscimol binding to HEK cell membranes, α1 intrasubunit site mutant. Also on record: species or system rat α1, human β3. The conditions noted are these: for Emax (% of control) of [3H]muscimol binding: 100% means no effect; for Bmax of [3H]muscimol binding isotherm in the presence of the modulator: etomidate 100 μM, 3α5αP 30 μM, KK148 30 μM, control 0.90 ± 0.18. Here is the method:
as §1, §2

Setting [1] is: α1(N408A/Y411F)β3, 3 nM [3H]muscimol.

Structures are written as SMILES. Several values for one entry are separate records, joined by “and”; a condition that tells them apart may be missing. Identical values can stand only once. Like-named read-outs stand apart in the source and are kept apart here.

Sequence of α1(Q242L)β3 GABAAR (P62813 28-455 Q268L): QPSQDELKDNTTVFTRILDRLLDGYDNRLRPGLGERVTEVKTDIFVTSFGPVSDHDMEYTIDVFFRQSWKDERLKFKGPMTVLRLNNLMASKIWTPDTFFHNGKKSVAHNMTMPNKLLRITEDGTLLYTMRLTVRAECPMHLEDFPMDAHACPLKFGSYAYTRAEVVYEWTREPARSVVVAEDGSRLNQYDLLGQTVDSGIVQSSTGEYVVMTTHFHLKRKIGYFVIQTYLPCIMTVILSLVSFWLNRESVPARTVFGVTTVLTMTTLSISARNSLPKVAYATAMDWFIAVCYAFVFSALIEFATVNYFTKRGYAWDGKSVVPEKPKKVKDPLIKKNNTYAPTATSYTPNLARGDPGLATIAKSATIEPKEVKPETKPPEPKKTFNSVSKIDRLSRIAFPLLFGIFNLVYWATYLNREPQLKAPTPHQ
Sequence of α1(Q242L)β3 GABAAR (P28472 26-473): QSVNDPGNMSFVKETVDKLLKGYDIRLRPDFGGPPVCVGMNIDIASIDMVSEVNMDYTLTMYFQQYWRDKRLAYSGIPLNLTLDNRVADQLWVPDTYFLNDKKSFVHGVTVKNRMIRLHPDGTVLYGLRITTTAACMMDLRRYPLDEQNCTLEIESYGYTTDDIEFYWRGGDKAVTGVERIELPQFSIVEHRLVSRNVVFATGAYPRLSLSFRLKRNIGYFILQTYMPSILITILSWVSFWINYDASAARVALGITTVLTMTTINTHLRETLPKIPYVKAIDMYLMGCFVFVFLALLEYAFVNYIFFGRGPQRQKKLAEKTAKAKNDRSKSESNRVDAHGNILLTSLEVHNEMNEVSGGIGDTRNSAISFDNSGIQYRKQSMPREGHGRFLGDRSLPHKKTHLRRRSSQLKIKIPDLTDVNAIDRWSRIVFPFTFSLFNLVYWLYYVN
T1 sequence (P62813 28-455): as the sequence (P62813 28-455 Q268L) above, with L241Q counted along it
T1 sequence (P28472 26-473): as the sequence (P28472 26-473) above
T2 sequence (P62813 28-455 N434A/Y437F): as the sequence (P62813 28-455 Q268L) above, with L241Q, N407A, Y410F counted along it
T2 sequence (P28472 26-473): as the sequence (P28472 26-473) above

Broadly, the EC50 is the concentration giving half of the maximal effect. Regarding `CC(=O)[C@H]1CC[C@H]2[C@@H]3CC[C@H]4C[C@H](O)CC[C@]4(C)[C@H]3CC[C@]12C` [3α5αP, allopregnanolone], the figures for the EC50 at α1(Q242L)β3 GABAAR and on α1(N408A/Y411F)β3 GABAAR were 2660 nM and 2300 nM, respectively. The “Hill slope for modulation of [3H]muscimol binding” value (“Hill slope for modulation” below) on α1(Q242L)β3 GABAAR (α1(Q242L)β3, 3 nM [3H]muscimol) was 1.16 ± 0.37; on α1(N408A/Y411F)β3 GABAAR (setting [1]), 0.87 ± 0.44. The “Emax (% of control) of [3H]muscimol binding” value on α1(Q242L)β3 GABAAR (α1(Q242L)β3, 3 nM [3H]muscimol) was “**159.8 ± 10.9 % of control”; on α1(N408A/Y411F)β3 GABAAR (setting [1]), “**146.0 ± 9.3 % of control”. In addition, the “Decrease of enhancement of [3H]muscimol binding by mutation” value on α1(Q242L)β3 GABAAR (β3(+)–α1(-) intersubunit site mutation vs WT) and on α1(N408A/Y411F)β3 GABAAR (α1 intrasubunit site mutation vs WT) was ~ 80% in each case. Moreover, the “Potentiation of GABA-elicited currents” value at α1β3 GABAAR is “potentiation”. Also, the “Bmax of [3H]muscimol binding isotherm in the presence of the modulator” value on α1(N408A/Y411F)β3 GABAAR (α1(N408A/Y411F)β3) is reported as 0.93 ± 0.16 pmol/mg.

As to `CC(=O)[C@H]1CC[C@H]2[C@@H]3CC[C@H]4C[C@@H](O)CC[C@]4(C)[C@H]3CC[C@]12C` [3β5αP, epi-allopregnanolone], the EC50 on α1(Q242L)β3 GABAAR is 270 ± 90 nM. Also, on α1(Q242L)β3 GABAAR (α1(Q242L)β3, 3 nM [3H]muscimol), the “Hill slope for modulation” value was found to be 0.77 ± 0.21 and the “Emax (% of control) of [3H]muscimol binding” value is reported as 204.3 ± 4.5 % of control. For the same compound, at α1β3 GABAAR (20 nM muscimol + 3 µM 3β5αP), the “Calculated steady-state Pdesensitized” value is 0.2168 and the “Steady-state Popen” value worked out at 0.009 ± 0.004. At α1β3 GABAAR, the “Potentiation of GABA-elicited currents” value is given as “absence of potentiation”; the “% of desensitization (reduction of steady-state current)” value is ~ 25% and 23.0 ± 2.8%. Further, on α1β3 GABAAR (1 mM GABA + 3 µM 3β5αP), the “Popen of the steady-state response” value is on record as 0.077 ± 0.013 and the “Sum of (Popen + Pdesensitized)” value is recorded as 0.97. The “Steady-state Pdesensitized” value at α1β3 GABAAR (1 mM GABA + 3 µM 3β5αP, Resting-Open-Desensitized model) stood at 0.892. Also, the “Effect on peak current amplitude” value on α1β3 GABAAR (co-application of 3 µM 3β5αP with 1 mM GABA) was “does not reduce”. Moreover, the “Effect on decay rate of GABA-elicited currents” value on α1β3 GABAAR (prolonged co-application of 1 mM GABA + 3 µM 3β5αP) is recorded as “increases”. On α1(N408A/Y411F)β3 GABAAR, this compound yielded an EC50 of 610 ± 260 nM. For the same compound, on α1(N408A/Y411F)β3 GABAAR (setting [1]), the “Hill slope for modulation” value stood at 2.25 ± 0.92 and the “Emax (% of control) of [3H]muscimol binding” value is recorded as “**124.3 ± 2.6 % of control”.

Take `C#CCCO[C@H]1CC[C@H]2[C@@H]3CC[C@H]4CC5(CC[C@]4(C)[C@H]3CC[C@]12C)N=N5` [KK148]: the “Hill slope for modulation” value at α1(Q242L)β3 GABAAR (α1(Q242L)β3, 3 nM [3H]muscimol) stood at 1.24 ± 0.12; on α1(N408A/Y411F)β3 GABAAR (setting [1]), 0.73 ± 0.23. The “Emax (% of control) of [3H]muscimol binding” value was 434.5 ± 5.6 % of control on α1(Q242L)β3 GABAAR (α1(Q242L)β3, 3 nM [3H]muscimol) and “**161.7 ± 3.5 % of control” on α1(N408A/Y411F)β3 GABAAR (setting [1]). For the same compound, the EC50 worked out at 2200 ± 310 nM on α1(Q242L)β3 GABAAR (α1(Q242L)β3, 3 nM [3H]muscimol, read-out: EC50 for modulation of [3H]muscimol binding) and 1630 ± 530 nM at α1(N408A/Y411F)β3 GABAAR (α1(N408A/Y411F)β3, 3 nM [3H]muscimol, read-out: EC50 for modulation of [3H]muscimol binding). The “Potentiation of GABA-elicited currents” value on α1β3 GABAAR is on record as “absence of potentiation”. Besides, the “% of desensitization (reduction of steady-state current)” value on α1β3 GABAAR is given as 27.2 ± 6.0%. Further, the “Bmax of [3H]muscimol binding isotherm in the presence of the modulator” value at α1(N408A/Y411F)β3 GABAAR (α1(N408A/Y411F)β3) is 0.85 ± 0.22 pmol/mg.

`C#CCCO[C@@H]1CC[C@H]2[C@@H]3CC[C@H]4CC5(CC[C@]4(C)[C@H]3CC[C@]12C)N=N5` [KK150]: at α1β3 GABAAR, the “Potentiation of GABA-elicited currents” value is “absence of potentiation” and the “% of desensitization (reduction of steady-state current)” value turned out to be 2.1 ± 0.7%.

In general, Kd refers to a measure of binding affinity in units of concentration. `NCc1cc(=O)[nH]o1` [muscimol]: the “Bmax of [3H]muscimol binding isotherm” value at α1(Q242L)β3 GABAAR (α1(Q242L)β3) was 9.9 ± 0.6 (P > 0.99 vs. WT) pmol/mg; at α1(N408A/Y411F)β3 GABAAR (α1(N408A/Y411F)β3), 0.9 ± 0.1 (*P < 0.01 vs. WT) pmol/mg. Further, the Kd was determined as 44.3 ± 4.6 nM on α1(Q242L)β3 GABAAR (α1(Q242L)β3, read-out: Kd of [3H]muscimol binding isotherm) and 60.7 ± 7.5 nM on α1(N408A/Y411F)β3 GABAAR (α1(N408A/Y411F)β3, read-out: Kd of [3H]muscimol binding isotherm). Also, the “Peak Popen” value on α1β3 GABAAR (20 nM muscimol) is 0.012 ± 0.004. Further, the “Calculated steady-state Pdesensitized” value at α1β3 GABAAR (20 nM muscimol alone) is on record as 0.1001. Also, at α1β3 GABAAR (20 nM muscimol alone), the “Steady-state Popen” value came to 0.011 ± 0.004.
